# The source made the active and inactive calls.
# Columns and labels:
# [1] = target: T1, Carboxy-terminal domain RNA polymerase II polypeptide A small phosphatase 1 (Homo sapiens, UniProt Q9GZU7); test: CTDSP1 inhibitors, concentration-response, biochemical, absorbance readout, ultra-high-throughput screen actives (AID 540297); format: functional
# T1 sequence (Q9GZU7 whole entry): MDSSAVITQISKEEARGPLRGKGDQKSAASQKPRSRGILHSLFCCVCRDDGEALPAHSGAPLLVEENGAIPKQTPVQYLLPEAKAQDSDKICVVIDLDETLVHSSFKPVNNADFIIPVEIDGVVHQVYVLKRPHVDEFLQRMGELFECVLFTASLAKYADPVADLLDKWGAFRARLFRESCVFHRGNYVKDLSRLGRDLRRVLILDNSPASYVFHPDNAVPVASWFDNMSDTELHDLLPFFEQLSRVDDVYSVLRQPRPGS
# Nonstructural protein 1 = Nonstructural protein 1 (Influenza A virus, UniProt Q194T2); format: functional, Influenza A virus (A/California/07/2009(H1N1))
# Sequence of Nonstructural protein 1 (Q194T2 whole entry): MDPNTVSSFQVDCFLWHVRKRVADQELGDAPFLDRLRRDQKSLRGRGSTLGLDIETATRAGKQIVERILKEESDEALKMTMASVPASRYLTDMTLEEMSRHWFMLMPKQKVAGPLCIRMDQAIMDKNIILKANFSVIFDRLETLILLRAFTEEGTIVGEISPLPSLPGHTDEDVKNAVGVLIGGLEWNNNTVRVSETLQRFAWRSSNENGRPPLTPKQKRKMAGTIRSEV
# cells = format: functional
# Cytochrome P450 2D6 = Cytochrome P450 2D6 (Homo sapiens, UniProt P10635);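 further: CYP2D6 member of a cytochrome P450 panel assay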
# Sequence of Cytochrome P450 2D6 (P10635 whole entry): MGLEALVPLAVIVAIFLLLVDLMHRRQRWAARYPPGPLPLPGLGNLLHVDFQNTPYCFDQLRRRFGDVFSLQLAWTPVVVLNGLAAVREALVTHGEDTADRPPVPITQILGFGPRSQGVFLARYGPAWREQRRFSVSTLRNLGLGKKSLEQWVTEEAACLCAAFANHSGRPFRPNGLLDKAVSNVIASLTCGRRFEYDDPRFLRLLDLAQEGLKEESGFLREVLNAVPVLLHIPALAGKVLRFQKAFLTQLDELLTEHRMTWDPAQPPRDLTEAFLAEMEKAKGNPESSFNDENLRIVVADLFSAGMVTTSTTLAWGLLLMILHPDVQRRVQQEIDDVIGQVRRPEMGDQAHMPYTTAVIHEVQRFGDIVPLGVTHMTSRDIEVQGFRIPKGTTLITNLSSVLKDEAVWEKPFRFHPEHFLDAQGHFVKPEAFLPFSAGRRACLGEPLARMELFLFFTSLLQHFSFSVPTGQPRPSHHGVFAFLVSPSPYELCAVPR
# Cytochrome P450 3A4 = Cytochrome P450 3A4 (Homo sapiens, UniProt P08684);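 further: CYP3A4 tested as one member of a cytochrome P450 panel screen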
# Sequence of Cytochrome P450 3A4 (P08684 whole entry): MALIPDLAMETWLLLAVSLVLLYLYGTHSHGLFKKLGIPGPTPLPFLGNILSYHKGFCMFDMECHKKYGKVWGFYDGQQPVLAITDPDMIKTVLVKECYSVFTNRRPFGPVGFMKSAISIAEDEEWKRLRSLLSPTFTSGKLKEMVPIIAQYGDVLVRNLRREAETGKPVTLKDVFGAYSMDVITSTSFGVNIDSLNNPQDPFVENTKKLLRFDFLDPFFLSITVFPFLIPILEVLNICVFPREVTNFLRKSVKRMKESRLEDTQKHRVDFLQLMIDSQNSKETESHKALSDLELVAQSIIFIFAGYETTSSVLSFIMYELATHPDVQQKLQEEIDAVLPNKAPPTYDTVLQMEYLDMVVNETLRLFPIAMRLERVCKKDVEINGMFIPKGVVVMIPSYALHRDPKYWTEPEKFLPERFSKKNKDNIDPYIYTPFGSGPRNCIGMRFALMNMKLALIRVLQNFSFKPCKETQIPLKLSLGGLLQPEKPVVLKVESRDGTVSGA
# Cytochrome P450 2C9 = Cytochrome P450 2C9 (Homo sapiens, UniProt P11712)
# Sequence of Cytochrome P450 2C9 (P11712 whole entry): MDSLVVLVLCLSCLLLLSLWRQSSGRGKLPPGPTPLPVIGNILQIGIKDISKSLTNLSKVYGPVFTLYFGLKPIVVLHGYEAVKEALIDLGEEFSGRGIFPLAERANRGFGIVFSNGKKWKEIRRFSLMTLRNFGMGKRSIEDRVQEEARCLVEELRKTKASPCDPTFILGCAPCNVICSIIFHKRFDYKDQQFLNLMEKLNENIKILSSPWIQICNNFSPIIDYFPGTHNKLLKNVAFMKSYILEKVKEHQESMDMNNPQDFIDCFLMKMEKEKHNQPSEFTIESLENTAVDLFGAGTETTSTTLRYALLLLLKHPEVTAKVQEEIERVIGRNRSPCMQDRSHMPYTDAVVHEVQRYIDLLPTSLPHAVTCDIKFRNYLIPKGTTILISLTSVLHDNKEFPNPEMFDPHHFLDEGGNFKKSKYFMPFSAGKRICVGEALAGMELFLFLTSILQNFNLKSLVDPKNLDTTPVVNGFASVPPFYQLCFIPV
# [2] = Trypanosoma cruzi growth suppression in host cells – NIH3T3 host cells, beta-gal luminescence, confirmation (AID 2044); format: functional, cell-based;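 further: intracellular parasites grown in NIH/3T3 mouse fibroblasts as host cells; luminescent beta-galactosidase reporter signal from transgenic T. cruzi replicating inside host cells; inhibitors lower the luminescence signal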
# [3] = NIH3T3 cell viability loss – ATP luminescence, mouse fibroblasts, counter-screen, dose response (AID 2010); format: functional, cell-based;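 further: cells exposed to compound for about 90 hours before reading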
# [4] = target: FAD-linked sulfhydryl oxidase ALR (Homo sapiens, UniProt P55789); test: ALR-catalysed DTT oxidation blockers – biochemical, H2O2 detection, luminescence, cherry-pick, dose response (AID 493248)
# Sequence of FAD-linked sulfhydryl oxidase ALR (P55789 whole entry): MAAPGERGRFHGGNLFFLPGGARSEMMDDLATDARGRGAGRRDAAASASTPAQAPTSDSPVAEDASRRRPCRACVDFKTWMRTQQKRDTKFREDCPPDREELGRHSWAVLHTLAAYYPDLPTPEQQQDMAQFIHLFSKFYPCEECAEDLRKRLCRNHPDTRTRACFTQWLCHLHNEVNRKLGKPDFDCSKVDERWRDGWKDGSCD
# [5] = luciferase reporter signal suppression in cells – H4 neuroglioma cells, luminescence, dose response (AID 1990); format: functional, cell-based
# [6] = Luminescence Cell-Based Dose Response HTS to Identify Inhibitors of 5'UTR Stem-Loop Driven Prion Protein mRNA Translation in H4 Neuroglioblastoma Cells. [Related pubchem assays: 1827 (Project Summary), 1813 (Primary HTS)]; format: functional
# [7] = alpha-synuclein stem-loop luciferase translation blockers – H4 neuroglioma cells, luminescence, confirmation (AID 1988); format: functional, cell-based
# [8] = target: Luciferin 4-monooxygenase (Photinus pyralis, UniProt P08659); test: inhibition of purified Photinus pyralis luciferase – biochemical, luminescence, dose response (AID 1891)
# Sequence of Luciferin 4-monooxygenase (P08659 whole entry): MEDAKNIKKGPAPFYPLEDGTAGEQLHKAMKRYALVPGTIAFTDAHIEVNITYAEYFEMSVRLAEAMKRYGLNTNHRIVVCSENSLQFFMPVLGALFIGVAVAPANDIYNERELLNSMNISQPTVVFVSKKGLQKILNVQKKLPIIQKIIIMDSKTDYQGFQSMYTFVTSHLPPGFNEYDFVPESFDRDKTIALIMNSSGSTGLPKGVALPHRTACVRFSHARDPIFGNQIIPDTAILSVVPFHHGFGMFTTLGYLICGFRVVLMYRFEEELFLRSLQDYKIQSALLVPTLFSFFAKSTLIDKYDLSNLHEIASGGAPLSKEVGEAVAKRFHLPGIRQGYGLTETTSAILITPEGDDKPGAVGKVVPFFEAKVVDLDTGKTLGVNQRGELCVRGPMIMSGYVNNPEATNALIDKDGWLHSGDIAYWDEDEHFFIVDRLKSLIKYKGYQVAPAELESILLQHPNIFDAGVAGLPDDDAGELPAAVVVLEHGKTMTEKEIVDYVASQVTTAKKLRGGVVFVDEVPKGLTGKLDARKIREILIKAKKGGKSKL
# [9] = Luminescence Cell-Based Dose Confirmation HTS to Identify Inhibitors of Platelet Dense Granule Release. [Related pubchem assays: 1663 (Primary HTS), 1678 (Summary of Project)]; format: functional
# [10] = target: T2, RNA-binding protein pos-1 (Caenorhabditis elegans, UniProt G5EF15); test: disruptors of C. elegans POS-1 RNA interaction – biochemical, fluorescence polarization, dose response (AID 1964);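 further: purified POS-1 fused to maltose binding protein made in E. coli; potency of compounds blocking POS-1 binding to fluorescent RNA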
# T2 sequence (G5EF15 whole entry): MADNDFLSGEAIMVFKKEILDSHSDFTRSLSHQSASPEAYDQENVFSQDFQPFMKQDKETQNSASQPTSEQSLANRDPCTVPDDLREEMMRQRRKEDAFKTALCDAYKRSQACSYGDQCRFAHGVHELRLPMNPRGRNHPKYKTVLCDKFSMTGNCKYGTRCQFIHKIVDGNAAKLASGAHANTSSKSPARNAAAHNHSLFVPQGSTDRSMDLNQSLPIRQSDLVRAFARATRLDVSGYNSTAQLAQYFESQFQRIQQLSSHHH
# [11] = target: T3, Zinc finger protein mex-5 (Caenorhabditis elegans, UniProt Q9XUB2); test: potency of MEX-5 RNA-binding blockers – biochemical, C. elegans, fluorescence polarization, dose response (AID 1960)
# T3 sequence (Q9XUB2 whole entry): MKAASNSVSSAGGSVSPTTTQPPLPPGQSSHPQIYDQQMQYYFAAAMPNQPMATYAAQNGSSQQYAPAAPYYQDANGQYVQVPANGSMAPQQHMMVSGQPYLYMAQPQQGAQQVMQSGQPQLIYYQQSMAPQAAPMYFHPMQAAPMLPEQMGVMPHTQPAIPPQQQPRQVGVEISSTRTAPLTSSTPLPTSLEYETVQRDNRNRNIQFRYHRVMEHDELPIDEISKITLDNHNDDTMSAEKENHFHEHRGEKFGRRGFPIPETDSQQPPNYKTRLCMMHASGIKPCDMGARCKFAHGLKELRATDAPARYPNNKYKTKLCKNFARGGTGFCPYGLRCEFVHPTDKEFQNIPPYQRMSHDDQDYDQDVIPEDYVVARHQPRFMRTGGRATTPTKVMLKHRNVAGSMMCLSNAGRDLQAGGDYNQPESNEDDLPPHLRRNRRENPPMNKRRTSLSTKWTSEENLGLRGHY
# [12] = target: T4, Polyadenylate-binding protein 1 (Homo sapiens, UniProt P11940); test: MLLE binding blockers, Cy5 peptide tracer – biochemical, fluorescence polarization, Cy5-PAM2 peptide, secondary, miRNA deadenylation inhibitor project, dose response (AID 602260); format: functional; conditions: read-out: IC50_Mean
# T4 sequence (P11940 whole entry, the tested form may be a part): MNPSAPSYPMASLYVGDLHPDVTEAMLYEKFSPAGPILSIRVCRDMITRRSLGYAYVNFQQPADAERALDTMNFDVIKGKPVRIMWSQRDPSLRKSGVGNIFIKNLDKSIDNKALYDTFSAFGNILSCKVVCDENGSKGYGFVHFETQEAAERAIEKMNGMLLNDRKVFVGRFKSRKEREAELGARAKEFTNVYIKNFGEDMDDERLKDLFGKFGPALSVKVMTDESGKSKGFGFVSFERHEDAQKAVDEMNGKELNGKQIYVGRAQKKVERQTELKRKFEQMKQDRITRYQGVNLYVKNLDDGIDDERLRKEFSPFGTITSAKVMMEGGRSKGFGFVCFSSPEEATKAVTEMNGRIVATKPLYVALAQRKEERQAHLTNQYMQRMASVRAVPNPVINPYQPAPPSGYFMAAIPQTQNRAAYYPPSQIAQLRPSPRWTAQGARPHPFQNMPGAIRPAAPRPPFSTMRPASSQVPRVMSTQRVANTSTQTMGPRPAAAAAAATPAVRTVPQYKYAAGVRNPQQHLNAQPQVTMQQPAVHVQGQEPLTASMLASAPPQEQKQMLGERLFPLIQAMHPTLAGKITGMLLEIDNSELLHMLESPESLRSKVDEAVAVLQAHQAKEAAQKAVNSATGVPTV
# [13] = target: T4, Polyadenylate-binding protein 1; test: MLLE domain peptide-binding blockers, IC50 – biochemical, fluorescence polarization, FITC-PAM2 peptide, dose response (AID 602259); format: functional; conditions: read-out: IC50_Mean
# [14] = Luminescence Cell-Based Dose Retest to Confirm Inhibitors of Cancer Stem Cells. [Related pubchem assays (depositor defined):AID2717, AID2721]; format: functional; conditions: Homo sapiens
compound,measurement,setting,value
O=C(CN1C(=O)N/C(=C\c2ccccc2OCc2ccc(C(=O)O)cc2)C1=O)Nc1ccc(F)cc1,IC50,[1],9.09 µM (active)
Cc1onc(-c2ccccc2Cl)c1C(=O)NCCn1c(C)cc2ccccc21,IC50,Nonstructural protein 1,> 100 µM (active)
O=C(OCc1ccccn1)c1ccc(COc2ccccc2Cl)o1,IC50,cells,35.1 µM (active)
same,AC50,Cytochrome P450 2D6,17.8 µM (inconclusive)
same,AC50,Cytochrome P450 3A4,31.6 µM (inconclusive)
same,AC50,Cytochrome P450 2C9,39.8 µM (inconclusive)
O=C(COC(=O)c1cc(-c2cccs2)nc2ccccc12)NCc1ccco1,IC50,[1],9.73 µM (active)
Cn1c(=O)[nH]c(=O)c2c1nc(Br)n2CCCSc1nc2ccccc2o1,EC50,[2],1.32 µM (active)
same,EC50,[3],15.8 µM (active)
same,AC50,[4],< 0.005 µM (active)
O=S(=O)(NCCc1csc(-c2cccnc2)n1)c1ccc2c(c1)OCCO2,EC50,[5],> 120 µM (not active)
same,EC50,[6],16.4 µM (active)
same,EC50,[7],> 120 µM (not active)
same,EC50,[8],> 112 µM (not active)
same,EC50,[9],> 112 µM (not active)
N#Cc1nc(-c2cccs2)oc1NCCc1ccccc1,IC50,cells,7.45 µM (active)
Cc1ccc(C)n1-c1ccc2c(c1)COC2=O,EC50,[10],> 300 µM (not active)
same,EC50,[11],> 300 µM (not active)
COc1ccc(NS(=O)(=O)c2ccc(NC(=S)NC(=O)c3cccc(F)c3)cc2)nn1,IC50,[12],> 66 µM (inactive)
same,IC50,[13],> 66 µM (inactive)
CCCCN=C(S)Nc1ccc(OC)nc1,IC50,[12],> 66 µM (inactive)
same,IC50,[13],43.7 µM (inactive)
O=C1NC(c2ccccn2)Nc2sc3c(c21)CCC3 (centres undefined),IC50,Nonstructural protein 1,54.2 µM (active)
CCCC(=O)NC(=S)Nc1cccc(Cl)c1N1CCCC1,AC50,[14],4.17 µM (active)
same,IC50,[12],> 66 µM (inactive)
same,IC50,[13],> 66 µM (inactive)
COc1ccccc1C(=O)C1CCCN(C(=O)c2cccnc2SC)C1 (centres undefined),EC50,[10],> 300 µM (not active)
same,EC50,[11],> 300 µM (not active)
CCCCCCN1C(=O)NC(=O)/C(=C\NCCCn2ccnc2)C1=O,EC50,[10],> 300 µM (not active)
same,EC50,[11],> 300 µM (inconclusive)
c1ccc(-c2cn(C[C@H]3CC[C@H](Cn4cc(-c5ccccn5)nn4)O3)nn2)nc1,IC50,Nonstructural protein 1,3.19 µM (active)
COc1ccc(C(=O)NCC(c2cccnc2)N2CCN(c3ccc(F)cc3)CC2)cc1OC (centres undefined),AC50,[4],< 0.005 µM (active)
CCc1c(O)n(-c2ccccc2C)c(SCC(=O)Nc2ccccc2OC)nc1=O,IC50,[12],> 66 µM (inactive)
same,IC50,[13],> 66 µM (inactive)
O=C(O)C1CCCN1c1nc(Cl)ccc1[N+](=O)[O-] (centres undefined),IC50,[12],> 66 µM (inactive)
same,IC50,[13],> 66 µM (inactive)
CO/N=C/CC(=O)c1ccc(OC)cc1,IC50,cells,22.9 µM (active)
CCSc1ncc(/C=N/Nc2ccc(Cl)cc2)n1C,AC50,[14],3.3 µM (active)
same,IC50,cells,> 50 µM (active)
Cc1cc(C(=O)N/N=C/c2cccc([N+](=O)[O-])c2O)[nH]n1,IC50,Nonstructural protein 1,7.33 µM (active)
COc1cccc(/C=N/NC(=O)c2ccc(O)nn2)c1O,EC50,[10],31.7 µM (active)
Cc1nc2ccccc2n1/C(=N/S(=O)(=O)c1ccc(Br)cc1)c1ccccc1,EC50,[8],> 112 µM (not active)
same,EC50,[9],> 112 µM (not active)
CC(C)[N+](C)(CCC(C(N)=O)(c1ccccc1)c1ccccc1)C(C)C [ISOPROPAMIDE IODIDE],IC50,[1],3.27 µM (active)
